Assay results: PubChem BioAssay (NCI)
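Here, GI50 denotes the concentration required for 50% inhibition of growth. TGI marks complete inhibition of growth.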

How the values were obtained:
Assay in all cases: DTP human tumour cell line panel, 384-well format
[1] = test system: 786-0 renal
[2] = test system: A498 renal
[3] = test system: A549 NSCLC
[4] = test system: ACHN renal
[5] = test system: BT-549 breast
[6] = test system: CAKI-1 renal
[7] = test system: CCRF-CEM leukemia
[8] = test system: COLO 205 colon
[9] = test system: DU-145 prostate
[10] = test system: EKVX NSCLC
[11] = test system: HCC-2998 colon
[12] = test system: HCT-116 colon
[13] = test system: HCT-15 colon
[14] = test system: HL-60(TB) leukemia
[15] = test system: HOP-62 NSCLC
[16] = test system: HOP-92 NSCLC
[17] = test system: HS 578T breast
[18] = test system: HT29 colon
[19] = test system: IGROV1 ovarian
[20] = test system: K-562 leukemia
[21] = test system: KM12 colon
[22] = test system: LOX IMVI melanoma
[23] = test system: M14 melanoma
[24] = test system: MALME-3M melanoma
[25] = test system: MCF7 breast
[26] = test system: MDA-MB-231 breast
[27] = test system: MDA-MB-435 melanoma
[28] = test system: MDA-MB-468 breast
[29] = test system: MOLT-4 leukemia
[30] = test system: NCI-H226 lung
[31] = test system: NCI-H23 lung
[32] = test system: NCI-H322M lung
[33] = test system: NCI-H460 NSCLC
[34] = test system: NCI-H522 lung
[35] = test system: NCI/ADR-RES ovarian
[36] = test system: OVCAR-3 ovarian
[37] = test system: OVCAR-4 ovarian
[38] = test system: OVCAR-5 ovarian
[39] = test system: OVCAR-8 ovarian
[40] = test system: PC-3 prostate
[41] = test system: RPMI-8226 leukemia
[42] = test system: RXF 393 renal
[43] = test system: SF-268 CNS
[44] = test system: SF-295 CNS
[45] = test system: SF-539 CNS
[46] = test system: SK-MEL-28 melanoma
[47] = test system: SK-MEL-5 melanoma
[48] = test system: SK-OV-3 ovarian
[49] = test system: SN12C renal
[50] = test system: SNB-19 CNS
[51] = test system: SNB-75 CNS
[52] = test system: SW-620 colon
[53] = test system: T-47D breast
[54] = test system: TK-10 renal
[55] = test system: U251 glioblastoma
[56] = test system: UACC-257 melanoma
[57] = test system: UACC-62 melanoma
[58] = test system: UO-31 renal

C=CC(=O)Nc1cc2c(Nc3ccc(F)c(Cl)c3)ncnc2cc1OCCCN1CCOCC1
GI50 [1]: 1160 nM | TGI [1]: 2490 nM | GI50 [2]: 424 nM | TGI [2]: 1910 nM | GI50 [3]: 1320 nM | TGI [3]: 2710 nM | GI50 [4]: 13.1 nM | TGI [4]: 1660 nM | GI50 [5]: 1060 nM | TGI [5]: 2270 nM | GI50 [6]: 462 nM | TGI [6]: 1990 nM | GI50 [7]: 1200 nM | TGI [7]: 2460 nM | GI50 [8]: 1600 nM | TGI [8]: 3110 nM | GI50 [9]: 1070 nM | TGI [9]: 4190 nM | GI50 [10]: 50.7 nM | TGI [10]: 1930 nM | GI50 [11]: 1320 nM | TGI [11]: 2630 nM | GI50 [12]: 1760 nM | TGI [12]: 3260 nM | GI50 [13]: 1190 nM | TGI [13]: 2470 nM | GI50 [14]: 1220 nM | TGI [14]: 2500 nM | GI50 [15]: 1640 nM | TGI [15]: 3700 nM | GI50 [16]: 1400 nM | TGI [16]: 2930 nM | GI50 [17]: 1220 nM | TGI [17]: 2490 nM | GI50 [18]: 1550 nM | TGI [18]: 3000 nM | GI50 [19]: < 10 nM | TGI [19]: 838 nM | GI50 [20]: 1210 nM | TGI [20]: 2490 nM | GI50 [21]: 1580 nM | TGI [21]: 3020 nM | GI50 [22]: 1510 nM | TGI [22]: 2870 nM | GI50 [23]: 1580 nM | TGI [23]: 2950 nM | GI50 [24]: 1720 nM | TGI [24]: 3130 nM | GI50 [25]: 1140 nM | TGI [25]: 2520 nM | GI50 [26]: 1530 nM | TGI [26]: 3770 nM | GI50 [27]: 2420 nM | TGI [27]: 5090 nM | GI50 [28]: < 10 nM | GI50 [29]: 933 nM | TGI [29]: 2150 nM | GI50 [30]: 1960 nM | TGI [30]: 4700 nM | GI50 [31]: 1470 nM | TGI [31]: 2800 nM | GI50 [32]: < 10 nM | TGI [32]: 1290 nM | GI50 [33]: 1510 nM | TGI [33]: 2900 nM | GI50 [34]: 65.3 nM | TGI [34]: 454 nM | GI50 [35]: 1450 nM | TGI [35]: 2870 nM | GI50 [36]: 1030 nM | TGI [36]: 2220 nM | GI50 [37]: 2020 nM | TGI [37]: 6000 nM | GI50 [38]: 1740 nM | TGI [38]: 13600 nM | GI50 [39]: 1440 nM | TGI [39]: 2790 nM | GI50 [40]: 1690 nM | TGI [40]: 3110 nM | GI50 [41]: 1220 nM | TGI [41]: 2490 nM | GI50 [42]: 620 nM | TGI [42]: 2000 nM | GI50 [43]: 209 nM | TGI [43]: 1650 nM | GI50 [44]: 4620 nM | TGI [44]: 15800 nM | GI50 [45]: 1370 nM | TGI [45]: 2680 nM | GI50 [46]: 2030 nM | TGI [46]: 3520 nM | GI50 [47]: 1410 nM | TGI [47]: 2750 nM | GI50 [48]: 1060 nM | TGI [48]: 2670 nM | GI50 [49]: 267 nM | TGI [49]: 1910 nM | GI50 [50]: 1850 nM | TGI [50]: 4140 nM | GI50 [51]: 1120 nM | TGI [51]: 2910 nM | GI50 [52]: 1690 nM | TGI [52]: 3080 nM | GI50 [53]: 54.7 nM | TGI [53]: 1440 nM | GI50 [54]: 36.8 nM | TGI [54]: 2090 nM | GI50 [55]: 1910 nM | TGI [55]: 3790 nM | GI50 [56]: 1310 nM | TGI [56]: 2620 nM | GI50 [57]: 1450 nM | TGI [57]: 2780 nM | GI50 [58]: 1170 nM | TGI [58]: 4220 nM
